# Assay results reported in patent publication USRE38332E1, “Selected soluble esters of hydroxyl-containing indolocarbazoles” (Cephalon, Inc., priority 1995, dated 2003).
# System: ChAT activity in spinal cord cultures
# Experiment: Effect of indolocarbazole esters on ChAT activity in dissociated spinal cord cultures
# Type: cell-based, rat
# Conditions: 500 nM
# Procedure: The effect of indolocarbazole esters of the invention on ChAT activity was assayed in dissociated spinal cord cultures prepared from fetal rats. ChAT is the enzyme that catalyzes the synthesis of the neurotransmitter acetylcholine, and it is a specific biochemical marker for cholinergic neurons. In the spinal cord, the large majority of cholinergic neurons are motor neurons. Assay of this enzyme may thus be used as an indication of the effects of a factor (or factors) on the survival and/or differentiation of cholinergic neurons and/or regulation of this enzyme. The procedure used for the assay is that described in Example 6 of WO 94/02488. Fourteen esters were tested in the spinal cord ChAT assay to determine their relative efficacy, and the results are summarized in Table 4.
row,Structure (SMILES),Spinal Cord ChAT Activity (% of Control) 500 nM
1,"COC1(COC(=O)C(C)N)CC2OC1(C)n1c3ccccc3c3c4c(c5c6ccccc6n2c5c31)C(=O)NC4.Cl (stereo not shown) [Example 3, (I-5)-Alaninate Hydrochloride]",151 % of Control
2,"COC1(COC(=O)CCC(=O)O)CC2OC1(C)n1c3ccccc3c3c4c(c5c6ccccc6n2c5c31)C(=O)NC4 (stereo not shown) [Example 4, (I-5)-Hydrogen Succinate]",150 % of Control
3,"COC1(COC(=O)C(N)CCCNC(=N)N)CC2OC1(C)n1c3ccccc3c3c4c(c5c6ccccc6n2c5c31)C(=O)NC4.Cl.Cl (stereo not shown) [Example 10, (I-5)-Argininate Dihydrochloride]",128 % of Control
4,"COC1(COC(=O)CN(C)C)CC2OC1(C)n1c3ccccc3c3c4c(c5c6ccccc6n2c5c31)C(=O)NC4.Cl (stereo not shown) [Example 7, (I-5)-N,N-Dimethylglycinate Hydrochloride]",132 % of Control
5,"COC1(COC(=O)c2ccc[n+](C)c2)CC2OC1(C)n1c3ccccc3c3c4c(c5c6ccccc6n2c5c31)C(=O)NC4.[I-] (stereo not shown) [Example 6, (I-5)-Pyridine-3-carboxylate Methiodide]",149 % of Control
6,"COC1(COC(=O)C(N)CCCCN)CC2OC1(C)n1c3ccccc3c3c4c(c5c6ccccc6n2c5c31)C(=O)NC4.Cl.Cl (stereo not shown) [Example 1, (I-5)-Lysinate Dihydrochloride]",150 % of Control

# Same assay, conditions: 1000 nM
row,Structure (SMILES),Spinal Cord ChAT Activity (% of Control) 1000 nM
1,"COC1(COC(=O)C(C)N)CC2OC1(C)n1c3ccccc3c3c4c(c5c6ccccc6n2c5c31)C(=O)NC4.Cl (stereo not shown) [Example 3, (I-5)-Alaninate Hydrochloride]",132 % of Control
2,"COC1(COC(=O)CCC(=O)O)CC2OC1(C)n1c3ccccc3c3c4c(c5c6ccccc6n2c5c31)C(=O)NC4 (stereo not shown) [Example 4, (I-5)-Hydrogen Succinate]",154 % of Control
3,"COC1(COC(=O)C(N)CCCNC(=N)N)CC2OC1(C)n1c3ccccc3c3c4c(c5c6ccccc6n2c5c31)C(=O)NC4.Cl.Cl (stereo not shown) [Example 10, (I-5)-Argininate Dihydrochloride]",170 % of Control
4,"COC1(COC(=O)CN(C)C)CC2OC1(C)n1c3ccccc3c3c4c(c5c6ccccc6n2c5c31)C(=O)NC4.Cl (stereo not shown) [Example 7, (I-5)-N,N-Dimethylglycinate Hydrochloride]",151 % of Control
5,"COC1(COC(=O)c2ccc[n+](C)c2)CC2OC1(C)n1c3ccccc3c3c4c(c5c6ccccc6n2c5c31)C(=O)NC4.[I-] (stereo not shown) [Example 6, (I-5)-Pyridine-3-carboxylate Methiodide]",150 % of Control
6,"COC1(COC(=O)C(N)CCCCN)CC2OC1(C)n1c3ccccc3c3c4c(c5c6ccccc6n2c5c31)C(=O)NC4.Cl.Cl (stereo not shown) [Example 1, (I-5)-Lysinate Dihydrochloride]",153 % of Control

# System: not listed separately
# Experiment: In vitro metabolism of I-5 esters in rat plasma
# Type: in vitro ADME
# Conditions: 5000 ng/mL, 37° C.
# Procedure: (§1) Freshly-collected plasma from male Sprague-Dawley rats and presumably-healthy drug-free male humans was pooled and immediately frozen. The plasma was kept frozen at −90° C. and each aliquot was thawed only once for use in incubations. Stock solutions of the indolocarbazole esters were prepared in DMSO and were used to prepare standard curves in plasma that had been boiled to two minutes. Boiled plasma was divided into 500 μL aliquots, mixed with an aliquot of the internal standard, and spiked with the respective stock indolocarbazole ester solutions to prepare the standard curve. Thawed plasma was divided into 500 μL aliquots, placed in screw-cap vials, mixed with internal standard, and spiked with stock solutions of the respective indolocarbazole esters to yield a nominal concentration of 5000 ng/mL.
# (§2) Incubations were then performed at 37° C. in a shaking water bath for 0, 0.5, 1, 2, 5, 10, 15, 30, and 60 minutes and quenched by addition of 5 mL methylene chloride. All tubes (standards and experimentals) were extracted for 15 minutes by shaking, and centrifuged. The methylene chloride layer was removed, dried under a stream of nitrogen, and reconstituted in DMSO. Fifty μL of the reconstituted extracts were analyzed by reverse-phase HPLC with detection at 290 nm. The mobile phase and gradient conditions are given below: […]
maximum rates of hydrolysis,Structure (SMILES),"hydrolysis of the ester linkage, liberation of indolocarbazole I-5"
more extensively hydrolyzed,"COC1(COC(=O)C(C)N)CC2OC1(C)n1c3ccccc3c3c4c(c5c6ccccc6n2c5c31)C(=O)NC4.Cl (stereo not shown) [Example 3, (I-5)-Alaninate Hydrochloride]",
,"COC1(COC(=O)C(N)CCCNC(=N)N)CC2OC1(C)n1c3ccccc3c3c4c(c5c6ccccc6n2c5c31)C(=O)NC4.Cl.Cl (stereo not shown) [Example 10, (I-5)-Argininate Dihydrochloride]",complete prior to the first sampling period

# System: not listed separately
# Experiment: In vitro metabolism of I-5 esters in human plasma
# Type: in vitro ADME
# Conditions: 5000 ng/mL, 37° C.
# Procedure: as §1, §2
row,"hydrolysis, conversion to indolocarbazole I-5",Structure (SMILES)
1,not detectable,"COC1(COC(=O)C(C)N)CC2OC1(C)n1c3ccccc3c3c4c(c5c6ccccc6n2c5c31)C(=O)NC4.Cl (stereo not shown) [Example 3, (I-5)-Alaninate Hydrochloride]"
2,hydrolyzed rapidly,"COC1(COC(=O)C(N)CCCNC(=N)N)CC2OC1(C)n1c3ccccc3c3c4c(c5c6ccccc6n2c5c31)C(=O)NC4.Cl.Cl (stereo not shown) [Example 10, (I-5)-Argininate Dihydrochloride]"

row,Structure (SMILES),"hydrolysis, conversion to indolocarbazole I-5"
1,"COC1(COC(=O)C(N)CCCCN)CC2OC1(C)n1c3ccccc3c3c4c(c5c6ccccc6n2c5c31)C(=O)NC4.Cl.Cl (stereo not shown) [Example 1, (I-5)-Lysinate Dihydrochloride]",hydrolyzed rapidly

# System: not listed separately
# Experiment: Solubility of the esters at 1 mg/ml in water and buffer solutions
# Conditions: 10 mM Tris buffer pH 9
# Procedure: Indolocarbazole esters were dissolved in water, dimethylsulfoxide (DMSO) and the following buffer solutions to determine solubility and to observe conversion to indolocarbazole I-5. Samples were analyzed by HPLC using UV detection at 290 nm.
# Solution 2 was a 10 mM acetate buffer at pH 4 which was prepared by weighing 0.68 g of sodium acetate 3H2O into 500 ml of water and adjusting the pH with acetic acid.
# Solution 3 was a 10 mM phosphate buffer, pH 7, which was prepared by weighing 0.30 g of monobasic sodium phosphate and 0.36 g of dibasic sodium phosphate into 500 ml of water, stirring until completely dissolved, and adjusting the pH with hydrochloric acid.
# Solution 4 was a 10 mM Tris buffer, pH 9, which was prepared by weighing 0.79 g of Tris (tris(hydroxymethyl)aminomethane hydrochloride) into 500 ml of water, stirring until completely dissolved, and adjusting the pH with sodium hydroxide.
# Sample solutions were prepared by weighing 0.5-1 mg of the indolocarbazole ester into an amber 1.5 ml autosampler vial, to which the appropriate quantity of one of the buffer solutions was added, in order to achieve a final concentration of 1 mg/ml. The sample solutions were vortexed and sonicated for 10 minutes. Fifty μl aliquots were placed into 1.5 ml amber autosampler vials. The reaction was quenched at a selected time interval by addition of 450 μl DMSO to the vial.
row,Structure (SMILES),solubility in Tris buffer
1,"COC1(COC(=O)C(C)N)CC2OC1(C)n1c3ccccc3c3c4c(c5c6ccccc6n2c5c31)C(=O)NC4.Cl (stereo not shown) [Example 3, (I-5)-Alaninate Hydrochloride]",not completely soluble
2,"COC1(COC(=O)CCC(=O)O)CC2OC1(C)n1c3ccccc3c3c4c(c5c6ccccc6n2c5c31)C(=O)NC4 (stereo not shown) [Example 4, (I-5)-Hydrogen Succinate]",not completely soluble
3,"COC1(COC(=O)CN(C)C)CC2OC1(C)n1c3ccccc3c3c4c(c5c6ccccc6n2c5c31)C(=O)NC4.Cl (stereo not shown) [Example 7, (I-5)-N,N-Dimethylglycinate Hydrochloride]",not completely soluble
4,"COC1(COC(=O)c2ccc[n+](C)c2)CC2OC1(C)n1c3ccccc3c3c4c(c5c6ccccc6n2c5c31)C(=O)NC4.[I-] (stereo not shown) [Example 6, (I-5)-Pyridine-3-carboxylate Methiodide]",not completely soluble
5,"COC1(COC(=O)C(N)CCCCN)CC2OC1(C)n1c3ccccc3c3c4c(c5c6ccccc6n2c5c31)C(=O)NC4.Cl.Cl (stereo not shown) [Example 1, (I-5)-Lysinate Dihydrochloride]",completely soluble

# Same assay, conditions: 10 mM acetate buffer pH 4
row,Structure (SMILES),solubility in acetate buffer
1,"COC1(COC(=O)C(C)N)CC2OC1(C)n1c3ccccc3c3c4c(c5c6ccccc6n2c5c31)C(=O)NC4.Cl (stereo not shown) [Example 3, (I-5)-Alaninate Hydrochloride]",completely soluble
2,"COC1(COC(=O)CCC(=O)O)CC2OC1(C)n1c3ccccc3c3c4c(c5c6ccccc6n2c5c31)C(=O)NC4 (stereo not shown) [Example 4, (I-5)-Hydrogen Succinate]",not completely soluble
3,"COC1(COC(=O)CN(C)C)CC2OC1(C)n1c3ccccc3c3c4c(c5c6ccccc6n2c5c31)C(=O)NC4.Cl (stereo not shown) [Example 7, (I-5)-N,N-Dimethylglycinate Hydrochloride]",completely soluble
4,"COC1(COC(=O)c2ccc[n+](C)c2)CC2OC1(C)n1c3ccccc3c3c4c(c5c6ccccc6n2c5c31)C(=O)NC4.[I-] (stereo not shown) [Example 6, (I-5)-Pyridine-3-carboxylate Methiodide]",not completely soluble
5,"COC1(COC(=O)C(N)CCCCN)CC2OC1(C)n1c3ccccc3c3c4c(c5c6ccccc6n2c5c31)C(=O)NC4.Cl.Cl (stereo not shown) [Example 1, (I-5)-Lysinate Dihydrochloride]",completely soluble

# Same assay, conditions: 10 mM phosphate buffer pH 7
row,Structure (SMILES),solubility in phosphate buffer
1,"COC1(COC(=O)C(C)N)CC2OC1(C)n1c3ccccc3c3c4c(c5c6ccccc6n2c5c31)C(=O)NC4.Cl (stereo not shown) [Example 3, (I-5)-Alaninate Hydrochloride]",not completely soluble
2,"COC1(COC(=O)CCC(=O)O)CC2OC1(C)n1c3ccccc3c3c4c(c5c6ccccc6n2c5c31)C(=O)NC4 (stereo not shown) [Example 4, (I-5)-Hydrogen Succinate]",not completely soluble
3,"COC1(COC(=O)CN(C)C)CC2OC1(C)n1c3ccccc3c3c4c(c5c6ccccc6n2c5c31)C(=O)NC4.Cl (stereo not shown) [Example 7, (I-5)-N,N-Dimethylglycinate Hydrochloride]",not completely soluble
4,"COC1(COC(=O)c2ccc[n+](C)c2)CC2OC1(C)n1c3ccccc3c3c4c(c5c6ccccc6n2c5c31)C(=O)NC4.[I-] (stereo not shown) [Example 6, (I-5)-Pyridine-3-carboxylate Methiodide]",not completely soluble
5,"COC1(COC(=O)C(N)CCCCN)CC2OC1(C)n1c3ccccc3c3c4c(c5c6ccccc6n2c5c31)C(=O)NC4.Cl.Cl (stereo not shown) [Example 1, (I-5)-Lysinate Dihydrochloride]",completely soluble

# Same assay, conditions: water (Solution 1)
row,Structure (SMILES),solubility in water
1,"COC1(COC(=O)C(C)N)CC2OC1(C)n1c3ccccc3c3c4c(c5c6ccccc6n2c5c31)C(=O)NC4.Cl (stereo not shown) [Example 3, (I-5)-Alaninate Hydrochloride]",completely soluble
2,"COC1(COC(=O)CCC(=O)O)CC2OC1(C)n1c3ccccc3c3c4c(c5c6ccccc6n2c5c31)C(=O)NC4 (stereo not shown) [Example 4, (I-5)-Hydrogen Succinate]",not completely soluble
3,"COC1(COC(=O)CN(C)C)CC2OC1(C)n1c3ccccc3c3c4c(c5c6ccccc6n2c5c31)C(=O)NC4.Cl (stereo not shown) [Example 7, (I-5)-N,N-Dimethylglycinate Hydrochloride]",completely soluble
4,"COC1(COC(=O)c2ccc[n+](C)c2)CC2OC1(C)n1c3ccccc3c3c4c(c5c6ccccc6n2c5c31)C(=O)NC4.[I-] (stereo not shown) [Example 6, (I-5)-Pyridine-3-carboxylate Methiodide]",not completely soluble
5,"COC1(COC(=O)C(N)CCCCN)CC2OC1(C)n1c3ccccc3c3c4c(c5c6ccccc6n2c5c31)C(=O)NC4.Cl.Cl (stereo not shown) [Example 1, (I-5)-Lysinate Dihydrochloride]",completely soluble
